Where two headings read alike, the source gives them in different places.
How the values were obtained:
Experiment in all cases: MTT cell proliferation assay
Type in all cases: cell-based
3T3 cells = conditions: Mus musculus, NIH3T3, approximately 64-72 hours incubation
In short: (§1)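 Cytotoxicity was measured by MTT: OD490 of the solubilized formazan after roughly 4 h with MTT reagent, reported as mean percent inhibition relative to the negative control. Test compounds covered eight concentrations between 1 nM and 30 μM, added to 5,000–10,000 cells per well that had attached overnight.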

MS751 cells = conditions: Homo sapiens, MS751, MS751 cells, approximately 64-72 hours incubation
In short: as §1

Z138 cells = conditions: Homo sapiens, Z-138, Z138 cells, approximately 64-72 hours incubation
In short: as §1

[1] = read-out: MTT Assay IC50, MS-751
[2] = read-out: MTT Assay IC50, Z-138
[3] = read-out: MTT Assay IC50 MS-751

Compound	IC50 (3T3 cells; read-out: MTT Assay IC50, 3T3) [nM]	IC50 (MS751 cells; [1]) [nM]	IC50 (Z138 cells; [2]) [nM]	IC50 (3T3 cells; read-out: MTT Assay IC50 3T3) [nM]	IC50 (MS751 cells; [3]) [nM]	IC50 (Z138 cells; read-out: MTT Assay IC50 Z-138) [nM]
O=C(/C=C/c1cccnc1)NCc1cc2cc(-c3ccc(C(=O)N4CCC(F)(F)CC4)cc3)cc(-c3cccc(F)c3)c2o1 [Compound 727, (E)-N-((5-(4-(4,4-difluoropiperidine-1-carbonyl)phenyl)-7-(3-fluorophenyl)benzofuran-2-yl)methyl)-3-(pyridin-3-yl)acrylamide]	< 100	< 100	< 100	–	–	–
Nc1ccc(/C=C/C(=O)NCc2cc3cc(-c4ccc(C(=O)N5CCC(F)(F)CC5)cn4)cc(-c4ccc(F)cc4)c3o2)cn1 [Compound 665, (E)-3-(6-aminopyridin-3-yl)-N-((5-(5-(4,4-difluoropiperidine-1-carbonyl)pyridin-2-yl)-7-(4-fluorophenyl)benzofuran-2-yl)methyl)acrylamide]	100 to 5000	< 100	< 100	–	–	–
O=C(/C=C/c1ccc(Cl)nc1)NCc1cc2cc(-c3ccc(C(=O)N4CCOCC4)cc3)cc(Cl)c2o1 [Compound 537, (E)-N-((7-Chloro-5-(4-(morpholine-4-carbonyl)phenyl)benzofuran-2-yl)methyl)-3-(6-chloropyridin-3-yl)acrylamide]	–	–	–	> 10000	> 10000	> 10000
Cc1ccncc1-c1cc(-c2ccc(C(=O)N3CCC(F)(F)CC3)cc2)cc2cc(CNC(=O)/C=C/c3ccc(N)nc3)oc12 [Compound 744, (E)-3-(6-aminopyridin-3-yl)-N-((5-(4-(4,4-difluoropiperidine-1-carbonyl)phenyl)-7-(4-methylpyridin-3-yl)benzofuran-2-yl)methyl)acrylamide]	100 to 5000	< 100	< 100	–	–	–
Nc1ccc(/C=C/C(=O)NCc2cc3cc(-c4ccc(C(=O)N5CCC(F)(F)CC5)cn4)cc(C4CC4)c3o2)cn1 [Compound 659, (E)-3-(6-aminopyridin-3-yl)-N-((7-cyclopropyl-5-(5-(4,4-difluoropiperidine-1-carbonyl)pyridin-2-yl)benzofuran-2-yl)methyl)acrylamide]	> 10000	100 to 5000	100 to 5000	–	–	–
Nc1ccc(/C=C/C(=O)NCc2cc3cc(-c4ccc(C(=O)N5CCC(F)(F)CC5)cc4)cc(-c4ccc(F)cc4Cl)c3o2)cn1 [Compound 738, (E)-3-(6-aminopyridin-3-yl)-N-((7-(2-chloro-4-fluorophenyl)-5-(4-(4,4-difluoropiperidine-1-carbonyl)phenyl)benzofuran-2-yl)methyl)acrylamide]	100 to 5000	< 100	< 100	–	–	–
Nc1ccc(/C=C/C(=O)NCc2cc3cc(-c4ccc(C(=O)N5CC(F)(F)C5)cn4)cc(C(F)(F)F)c3o2)cn1 [Compound 645, (E)-3-(6-aminopyridin-3-yl)-N-((5-(5-(3,3-difluoroazetidine-1-carbonyl)pyridin-2-yl)-7-(trifluoromethyl)benzofuran-2-yl)methyl)acrylamide]	–	–	–	> 10000	100 to 5000	< 100
O=C(/C=C/c1cccnc1)NCc1cc2cc(-c3ccc(C(=O)N4CC5(COC5)C4)cn3)cc(C(F)(F)F)c2o1 [Compound 689, (E)-N-((5-(5-(2-oxa-6-azaspiro[3.3]heptane-6-carbonyl)pyridin-2-yl)-7-(trifluoromethyl)benzofuran-2-yl)methyl)-3-(pyridin-3-yl)acrylamide]	100 to 5000	< 100	< 100	–	–	–
Nc1ccc(/C=C/C(=O)NCc2cc3cc(-c4ccc(C(=O)N5CCC(F)(F)CC5)cc4)cc(-c4cc5ccccc5o4)c3o2)cn1 [Compound 699]	5000 to 10000	< 100	< 100	–	–	–
CN1CCN(C(=O)c2ccc(-c3cc(C(F)(F)F)c4oc(CNC(=O)/C=C/c5ccc(N)nc5)cc4c3)cc2)CC1 [Compound 561, (E)-3-(6-aminopyridin-3-yl)-N-((5-(4-(4-methylpiperazine-1-carbonyl)phenyl)-7-(trifluoromethyl)benzofuran-2-yl)methyl)acrylamide]	–	–	–	5000 to 10000	< 100	< 100
Nc1ccc(/C=C/C(=O)NCc2cc3cc(-c4ccc(C(=O)N5CCC(O)(C(F)(F)F)C5)cc4)cc(C(F)(F)F)c3o2)cn1 (stereo not drawn) [Compound 606, (E)-3-(6-aminopyridin-3-yl)-N-((5-(4-(3-hydroxy-3-(trifluoromethyl)pyrrolidine-1-carbonyl)phenyl)-7-(trifluoromethyl)benzofuran-2-yl)methyl)acrylamide]	–	–	–	> 10000	100 to 5000	100 to 5000
Nc1ccc(/C=C/C(=O)NCc2cc3cc(-c4ccc(C(=O)N5CCC(F)(F)CC5)cc4)cc(-c4ccncc4)c3o2)cn1 [Compound 722, (E)-3-(6-aminopyridin-3-yl)-N-((5-(4-(4,4-difluoropiperidine-1-carbonyl)phenyl)-7-(pyridin-4-yl)benzofuran-2-yl)methyl)acrylamide]	100 to 5000	< 100	< 100	–	–	–
Nc1ccc(/C=C/C(=O)NCc2cc3cc(-c4ccc(C(=O)N5CCC(F)(F)CC5)cc4)cc(C(F)(F)F)c3o2)cn1 [Compound 566, (E)-3-(6-aminopyridin-3-yl)-N-((5-(4-(4,4-difluoropiperidine-1-carbonyl)phenyl)-7-(trifluoromethyl)benzofuran-2-yl)methyl)acrylamide]	–	–	–	> 10000	100 to 5000	100 to 5000
Nc1ccc(/C=C/C(=O)NCc2cc3cc(-c4ccc(C(=O)N5CCC[C@@H]5C(F)(F)F)cn4)cc(C(F)(F)F)c3o2)cn1 [Compound 624, (R,E)-3-(6-aminopyridin-3-yl)-N-((7-(trifluoromethyl)-5-(5-(2-(trifluoromethyl)pyrrolidine-1-carbonyl)pyridin-2-yl)benzofuran-2-yl)methyl)acrylamide]	–	–	–	> 10000	100 to 5000	100 to 5000
CC1(F)CCN(C(=O)c2ccc(-c3cc(C(F)(F)F)c4oc(CNC(=O)/C=C/c5ccc(N)nc5)cc4c3)cc2)CC1 [Compound 604, (E)-3-(6-aminopyridin-3-yl)-N-((5-(4-(4-fluoro-4-methylpiperidine-1-carbonyl)phenyl)-7-(trifluoromethyl)benzofuran-2-yl)methyl)acrylamide]	–	–	–	> 10000	100 to 5000	100 to 5000
Nc1ccc(/C=C/C(=O)NCc2cc3cc(-c4ccc(F)c(C(=O)N5CCOCC5)c4)cc(Cl)c3o2)cn1 [Compound 562, (E)-3-(6-aminopyridin-3-yl)-N-((7-chloro-5-(4-fluoro-3-(morpholine-4-carbonyl)phenyl)benzofuran-2-yl)methyl)acrylamide]	–	–	–	> 10000	< 100	< 100
CC1(O)CCN(C(=O)c2ccc(-c3cc(Cl)c4oc(CNC(=O)/C=C/c5ccc(N)nc5)cc4c3)cc2)CC1 [Compound 602, (E)-3-(6-aminopyridin-3-yl)-N-((7-chloro-5-(4-(4-hydroxy-4-methylpiperidine-1-carbonyl)phenyl)benzofuran-2-yl)methyl)acrylamide]	–	–	–	> 10000	100 to 5000	100 to 5000
Nc1ccc(/C=C/C(=O)NCc2cc3cc(-c4ccc(C(=O)N5CCC(F)(F)CC5)cn4)cc(-c4ccncc4)c3o2)cn1 [Compound 666, (E)-3-(6-aminopyridin-3-yl)-N-((5-(5-(4,4-difluoropiperidine-1-carbonyl)pyridin-2-yl)-7-(pyridin-4-yl)benzofuran-2-yl)methyl)acrylamide]	100 to 5000	< 100	< 100	–	–	–
O=C(/C=C/c1cccnc1)NCc1cc2cc(-c3ccc(C(=O)N4CCC(F)(F)CC4)cc3)cc(-c3ccncc3)c2o1 [Compound 723, (E)-N-((5-(4-(4,4-difluoropiperidine-1-carbonyl)phenyl)-7-(pyridin-4-yl)benzofuran-2-yl)methyl)-3-(pyridin-3-yl)acrylamide]	< 100	< 100	< 100	–	–	–
Nc1ccc(/C=C/C(=O)NCc2cc3cc(-c4ccc(C(=O)N5CCC(F)(F)CC5)cn4)cc(C(F)(F)F)c3o2)cc1F [Compound 676, (E)-3-(4-amino-3-fluorophenyl)-N-((5-(5-(4,4-difluoropiperidine-1-carbonyl)pyridin-2-yl)-7-(trifluoromethyl)benzofuran-2-yl)methyl)acrylamide]	> 10000	> 10000	> 10000	–	–	–
O=C(/C=C/c1cccnc1)NCc1cc2cc(-c3ccc(C(=O)N4CCC(F)(F)CC4)cc3)cc(-c3ccc(F)cc3)c2o1 [Compound 729]	< 100	< 100	< 100	–	–	–
CN(C)c1ccc(-c2cc(Cl)c3oc(CNC(=O)/C=C/c4ccc(N)nc4)cc3c2)nc1 [Compound 646, (E)-3-(6-aminopyridin-3-yl)-N-((7-chloro-5-(5-(dimethylamino)pyridin-2-yl)benzofuran-2-yl)methyl)acrylamide]	–	–	–	> 10000	> 10000	> 10000
O=C(/C=C/c1ccccn1)NCc1cc2cc(-c3ccc(C(=O)N4CCOCC4)cc3)cc(Cl)c2o1 [Compound 539, (E)-N-((7-chloro-5-(4-(morpholine-4-carbonyl)phenyl)benzofuran-2-yl)methyl)-3-(pyridin-2-yl)acrylamide]	–	–	–	> 10000	100 to 5000	100 to 5000
Nc1ccc(/C=C/C(=O)NCc2cc3cc(-c4ccc(C(=O)N5CCC(F)(F)CC5)cc4)cc(-c4ccc(F)nc4)c3o2)cn1 [Compound 735, (E)-3-(6-aminopyridin-3-yl)-N-((5-(4-(4,4-difluoropiperidine-1-carbonyl)phenyl)-7-(6-fluoropyridin-3-yl)benzofuran-2-yl)methyl)acrylamide]	100 to 5000	< 100	< 100	–	–	–

Source: patent US12331040B2 (Karyopharm Therapeutics Inc., priority 2013, dated 2025)
